Laboratory results taken from ChEMBL document CHEMBL5215006, “Antitumor Activity of Piceamycin by Upregulation of N-Myc Downstream-Regulated Gene 1 in Human Colorectal Cancer Cells” (J Nat Prod, 2022).
The source made the active and inactive calls. No cut-off for these calls is given here.

Tests used:
HCT-116 [1] = experiment: Induction of apoptosis in human HCT-116 cells assessed as viable cells at 0.3 uM incubated for 48 hrs by Annexin V-FITC/PI staining based flow cytometry analysis (Rvb= 94.18%); type: functional; conditions: read-out: Activity
SW480 [2] = experiment: Cell cycle arrest in human SW480 cells assessed as accumulation at Sub-G1 phase at 0.35 uM incubated for 24 hrs by RNaseA/propidium iodide staining based flow cytometry (reference value: 3.2 %); type: functional
HCT-116 [3] = experiment: Induction of apoptosis in human HCT-116 cells assessed as early apoptotic cells at 0.15 uM incubated for 48 hrs by Annexin V-FITC/PI staining based flow cytometry analysis (Rvb= 2.51%); type: functional
[4] = Toxicity in Balb/c mouse xenografted with human HCT-116 cells assessed as body weight change at 1 mg/kg,ip administrated for 18 days by 3 times per week; type: organism-based; conditions: in vivo, 432 h, time 18 day
SW480 [5] = experiment: Cell cycle arrest in human SW480 cells assessed as accumulation at G0/G1 phase at 1.4 uM incubated upto 48 hrs by RNaseA/propidium iodide staining based flow cytometry; type: functional
SW480 [6] = experiment: Induction of apoptosis in human SW480 cells assessed as early apoptotic cells at 0.35 uM incubated for 48 hrs by Annexin V-FITC/PI staining based flow cytometry analysis (Rvb= 2.07%); type: functional
SW480 [7] = experiment: Antitumor activity against human SW480 cells assessed as upregulation of NDRG1 protein expression at 0.35 to 1.4 uM incubated for 24 hrs by immunoblotting assay; type: functional, cell-based; conditions: dose 0.35-1.4 µM, DDE = dose-dependent effect
SW480 [8] = experiment: Induction of apoptosis in human SW480 cells assessed as upregulation of cleaved caspase-9 expression at 1.4 uM measured after 48 hrs by immunoblotting assay; type: functional, cell-based
HCT-116 [9] = experiment: Induction of apoptosis in human HCT-116 cells assessed as viable cells at 0.15 uM incubated for 48 hrs by Annexin V-FITC/PI staining based flow cytometry analysis (Rvb= 94.18%); type: functional; conditions: read-out: Activity
SW480 [10] = experiment: Cell cycle arrest in human SW480 cells assessed as accumulation at G0/G1 phase at 1.4 uM incubated for 24 hrs by RNaseA/propidium iodide staining based flow cytometry (reference value: 54.49 %); type: functional
HCT-116 [11] = experiment: Anti-migratory activity against human HCT-116 cells assessed as downregulation of N-cadherin protein expression at 0.075 to 0.3 uM incubated for 24 hrs by immunoblotting assay; type: functional, cell-based; conditions: dose 0.075-0.3 µM
HCT-116 [12] = experiment: Downregulation of cleaved PARP protein expression in human HCT-116 cells with NDRG1 knockdown at 0.3 uM incubated for 24 hrs by immunoblotting assay; type: functional, cell-based
SW480 [13] = experiment: Induction of apoptosis in human SW480 cells assessed as necrotic cells at 0.7 uM incubated for 48 hrs by Annexin V-FITC/PI staining based flow cytometry analysis (Rvb= 0.07%); type: functional
HCT-116 [14] = experiment: Induction of apoptosis in human HCT-116 cells assessed as upregulation of cleaved caspase-8 expression at 0.3 uM measured at 12 to 48 hrs by immunoblotting assay; type: functional, cell-based; conditions: time 12-48 hrs, TDE = time-dependent effect
HCT-116 [15] = experiment: Cell cycle arrest in human HCT-116 cells assessed as accumulation at G0/G1 phase at 0.3 uM incubated for 24 hrs by RNaseA/propidium iodide staining based flow cytometry (reference value: 48.44 %); type: functional
[16] = Toxicity in Balb/c mouse xenografted with human HCT-116 cells assessed as body weight change at 3 mg/kg,ip administrated for 18 days by 3 times per week; type: organism-based; conditions: in vivo, 432 h, time 18 day
HCT-116 [17] = experiment: Induction of apoptosis in human HCT-116 cells assessed as late apoptotic cells at 0.3 uM incubated for 48 hrs by Annexin V-FITC/PI staining based flow cytometry analysis (Rvb= 3.18%); type: functional
HCT-116 [18] = experiment: Upregulation of cyclin-D1 protein expression in human HCT-116 cells with NDRG1 knockdown at 0.3 uM incubated for 24 hrs by immunoblotting assay; type: functional, cell-based
HCT-116 [19] = experiment: Antitumor activity against human HCT-116 cells assessed as upregulation of NDRG1 gene expression at 0.075 to 0.3 uM incubated for 24 hrs by RT-PCR method; type: functional, cell-based; conditions: dose 0.075-0.3 µM, DDE = dose-dependent effect
HCT-116 [20] = experiment: Antimigratory activity against highly liver metastatic human HCT-116 cells assessed as upregulation of E-cadherin gene expression at 0.075 to 0.3 uM incubated for 24 hrs by RT-PCR method; type: functional, cell-based; conditions: dose 0.075-0.3 µM
HCT-116 [21] = experiment: Antimigratory activity against highly liver metastatic human HCT-116 cells assessed as upregulation of E-cadherin protein expression at 0.075 to 0.3 uM incubated for 24 hrs by immunoblotting assay; type: functional, cell-based; conditions: dose 0.075-0.3 µM
HCT-116 [22] = experiment: Cell cycle arrest in human HCT-116 cells assessed as accumulation at G0/G1 phase at 0.15 uM incubated for 24 hrs by RNaseA/propidium iodide staining based flow cytometry (reference value: 48.44 %); type: functional
HCT-116 [23] = experiment: Upregulation of c-Myc protein expression in human HCT-116 cells with NDRG1 knockdown at 0.3 uM incubated for 24 hrs by immunoblotting assay; type: functional, cell-based
SW480 [24] = experiment: Induction of apoptosis in human SW480 cells assessed as viable cells at 1.4 uM incubated for 48 hrs by Annexin V-FITC/PI staining based flow cytometry analysis (Rvb= 92.6%); type: functional; conditions: read-out: Activity
HCT-116 [25] = experiment: Cell cycle arrest in human HCT-116 cells assessed as accumulation at Sub-G1 phase at 0.3 uM incubated for 24 hrs by RNaseA/propidium iodide staining based flow cytometry (reference value: 3.66 %); type: functional
SW480 [26] = experiment: Cell cycle arrest in human SW480 cells assessed as accumulation at G0/G1 phase at 0.7 uM incubated for 24 hrs by RNaseA/propidium iodide staining based flow cytometry (reference value: 54.49 %); type: functional
HCT-116 [27] = experiment: Antitumor activity against human HCT-116 cells xenografted Balb/c mouse assessed as increase in NDRG1 protein expression at 3 mg/kg,ip administrated for 18 days by 3 times per week by immunoblotting assay; type: functional, organism-based; conditions: time 18.0 day
SW480 [28] = experiment: Cell cycle arrest in human SW480 cells assessed as accumulation at G2/M phase at 0.35 uM incubated for 24 hrs by RNaseA/propidium iodide staining based flow cytometry (reference value: 24.74 %); type: functional
SW480 [29] = experiment: Cell cycle arrest in human SW480 cells assessed as downregulation of CDK6 protein expression at 0.35 to 1.4 uM incubated for 24 hrs by immunoblotting assay; type: functional, cell-based; conditions: dose 0.35-1.4 µM
HCT-116 [30] = experiment: Anti-migratory activity against highly liver metastatic human HCT-116 cells assessed as reduction in migration to 0.075 to 0.3 uM incubated for 24 hrs by wound healing assay; type: functional, cell-based; conditions: dose 0.075-0.3 µM, DDE = dose-dependent effect
SW480 [31] = experiment: Antiproliferative activity against human SW480 cells assessed as cell growth inhibition incubated for 72 hrs by SRB assay; type: functional, cell-based; conditions: SW480, 72 h
SW480 [32] = experiment: Cell cycle arrest in human SW480 cells assessed as downregulation of cyclin-D1 protein expression at 0.35 to 1.4 uM incubated for 24 hrs by immunoblotting assay; type: functional, cell-based; conditions: dose 0.35-1.4 µM
SW480 [33] = experiment: Anti-migratory activity against human SW480 cells assessed as upregulation of E-cadherin gene expression at 0.35 to 1.4 uM incubated for 24 hrs by RT-PCR assay; type: functional, cell-based; conditions: dose 0.35-1.4 µM
SW480 [34] = experiment: Inhibition of colony formation in human SW480 cells at 0.35 to 1.4 uM incubated for 72 hrs by crystal violet staining based assay; type: functional, cell-based; conditions: dose 0.35-1.4 µM, DDE = dose-dependent effect

In the case of `C[C@@H]1\C=C/C=C/C=C\C=C\C=C\C(=O)C2=C(O)C(=O)C[C@@]2(C)/C=C/C=C\C=C/C(=O)NC1`, the viability at 0.3 µM (HCT-116 [1]) is reported as 40.1%, the Activity (SW480 [2]) is reported as 5.1% and the Activity (HCT-116 [3]) is reported as 15.66%. For the same compound, the Activity [4] was “Non-Toxic”, the Activity (SW480 [5]) was “Active” and the Activity (SW480 [6]) was 2.62%. The Activity (SW480 [7]) was “Dde”, the Activity (SW480 [8]) was “Active” and the viability at 0.15 µM (HCT-116 [9]) was 74.9%. For the same compound, the Activity (SW480 [10]) was 65.42%, the Activity (HCT-116 [11]) was “Active” and the Activity (HCT-116 [12]) was “Active”. The Activity (SW480 [13]) was 0.08%, the Activity (HCT-116 [14]) was “Tde” and the Activity (HCT-116 [15]) was 62.85%. For the same compound, the Activity [16] was “Non-Toxic”, the Activity (HCT-116 [17]) was 14.94% and the Activity (HCT-116 [18]) was “Active”. For the same compound, the Activity (HCT-116 [19]) was “Dde”, the Activity (HCT-116 [20]) was “Active” and the Activity (HCT-116 [21]) was “Active”. The Activity (HCT-116 [22]) was 55.55%, the Activity (HCT-116 [23]) was “Active” and the viability at 1.4 µM (SW480 [24]) was 31%. The Activity (HCT-116 [25]) was 5.19%, the Activity (SW480 [26]) was 62.43% and the Activity (HCT-116 [27]) was “Active”. The Activity (SW480 [28]) was 24.45%, the Activity (SW480 [29]) was “Active” and the Activity (HCT-116 [30]) was “Dde”. The IC50 (SW480 [31]) was 650 nM, the Activity (SW480 [32]) was “Active” and the Activity (SW480 [33]) was “Active”. The inhibition (SW480 [34]) was “Dde”.
